Target: EP4 receptor (Homo sapiens (Human), UniProt P35408)
Assay: Prostanoid receptor binding assay, hEP4 (membranes of transfected HEK 293(ebna) cells)
Conditions: radioligand binding, HEK 293(ebna) membranes, 10 mM MES/KOH pH 6.0
Procedure: Prostanoid receptor cDNAs corresponding to full length coding sequences are subcloned into the appropriate sites of mammalian expression vectors and transfected into HEK 293(ebna) cells. HEK 293(ebna) cells expressing the individual cDNAs are grown under selection and individual colonies are isolated after 2-3 weeks of growth using the cloning ring method and subsequently expanded into clonal cell lines.
Transfected HEK 293(ebna) cells are maintained in culture, harvested and membranes are prepared by differential centrifugation, following lysis of the cells in the presence of protease inhibitors, for use in receptor binding assays. Prostanoid receptor binding assays (for DP1, DP2 (CRTH2), EP1, EP2, EP3-III, EP4, FP, IP, and TP) are performed in 10 mM MES/KOH (pH 6.0) (EPs, FP and TP) or 10 mM HEPES/KOH (pH 7.4) (DPs and IP), containing 1 mM EDTA, 2.5-30 mM divalent cation and the appropriate radioligand. Synthetic compounds are added in dimethylsulfoxide which is kept constant at 1% (v/v) in all incubations. The reaction is initiated by addition of membrane protein. Non-specific binding is determined in the presence of 10 μM of the corresponding non-radioactive prostanoid. Incubations are conducted for 60-90 min at room temperature or 30° C. and terminated by rapid filtration. Specific binding is calculated by subtracting non specific binding from total binding. The residual specific binding at each ligand concentration is calculated and expressed as a function of ligand concentration in order to construct sigmoidal concentration-response curves. The binding affinity of the compounds is determined by calculating the equilibrium inhibition constant (Ki) from the equation Ki=InPt/1+[radioligand]/Kd where Kd is the equilibrium dissociation constant for the radioligand:receptor interaction and InPt is the inflection point of the dose-response curves.

EP4 receptor, sequence (P35408 whole entry): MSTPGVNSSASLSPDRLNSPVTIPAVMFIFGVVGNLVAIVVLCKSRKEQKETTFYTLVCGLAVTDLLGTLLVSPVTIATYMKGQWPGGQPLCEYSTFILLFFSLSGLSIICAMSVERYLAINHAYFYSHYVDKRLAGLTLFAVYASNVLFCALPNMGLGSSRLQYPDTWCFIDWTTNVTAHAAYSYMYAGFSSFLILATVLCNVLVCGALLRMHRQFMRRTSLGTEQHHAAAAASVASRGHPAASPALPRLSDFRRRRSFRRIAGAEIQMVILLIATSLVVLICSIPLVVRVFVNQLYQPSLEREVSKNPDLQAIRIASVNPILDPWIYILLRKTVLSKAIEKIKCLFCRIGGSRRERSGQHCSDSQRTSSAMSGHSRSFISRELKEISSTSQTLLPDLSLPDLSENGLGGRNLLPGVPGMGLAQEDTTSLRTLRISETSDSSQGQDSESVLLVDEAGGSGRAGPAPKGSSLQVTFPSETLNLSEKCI

Ki [nM]	Compound
5.2 ± 1.1	CC(NC(=O)c1sc(Cl)cc1Cc1cccc(Cl)c1)c1ccc(C(=O)O)cc1 (stereo not drawn) [Example 1, 4-[1-({[5-chloro-3-(3-chlorobenzyl)-2-thienyl]carbonyl}amino)ethyl]-benzoic acid]
2.6 ± 0.6	CC(NC(=O)c1sc(Cl)cc1Cc1cccc(Cl)c1)c1ccc(-c2nn[nH]n2)cc1 (stereo not drawn) [Example 2, 5-chloro-3-(3-chlorobenzyl)-N-{1-[4-(1H-tetrazol-5-yl)phenyl]ethyl}-thiophene-2-carboxamide]
7.9 ± 0.6	C[C@H](NC(=O)c1cscc1Cc1cccc(Cl)c1)c1ccc(C(=O)O)cc1 [Example 3, 4-[(1S)-1-({[4-(3-chlorobenzyl)-3-thienyl]carbonyl}amino)ethyl]benzoic acid]
0.71 ± 0.01	C[C@H](NC(=O)c1csc(Br)c1Cc1cccc(Cl)c1)c1ccc(C(=O)O)cc1 [Example 4, 4-[(1S)-1-({[5-bromo-4-(3-chlorobenzyl)-3-thienyl]carbonyl}amino)ethyl]benzoic acid]
0.47 ± 0.01	C[C@H](NC(=O)c1c(Br)sc(Br)c1Cc1cccc(Cl)c1)c1ccc(C(=O)O)cc1 [Example 5, 4-[(1S)-1-({[2,5-dibromo-4-(3-chlorobenzyl)-3-thienyl]carbonyl}amino)ethyl]benzoic acid]
124	COC(=O)c1ccc([C@H](C)NC(=O)c2c(Cl)sc(Cl)c2Cc2cccc(Cl)c2)cc1 [Example 6, methyl 4-[(1S)-1-({[2,5-dichloro-4-(3-chlorobenzyl)-3-thienyl]carbonyl}amino)ethyl]benzoate]
1.3 ± 0.6	C[C@H](NC(=O)c1c(Cl)sc(Cl)c1Cc1cccc(Cl)c1)c1ccc(C(=O)O)cc1 [Example 7, 4-[(1S)-1-({[2,5-dichloro-4-(3-chlorobenzyl)-3-thienyl]carbonyl}amino)ethyl]benzoic acid]
51	C[C@H](NC(=O)c1c(Cl)sc(Cl)c1C(OC1CCCCO1)c1cccc(Cl)c1)c1ccc(C(=O)O)cc1 (stereo partly drawn) [Example 8]
1.8	C[C@H](NC(=O)c1c(Cl)sc(Cl)c1C(O)c1cccc(Cl)c1)c1ccc(C(=O)O)cc1 (stereo partly drawn) [Example 9, 4-{(1S)-1-[({2,5-dichloro-4-[(3-chlorophenyl)(hydroxy)methyl]-3-thienyl}carbonyl)amino]ethyl}benzoic acid]
7.4 ± 1.3	C[C@H](NC(=O)c1c(Cl)sc(Cl)c1C(=O)c1cccc(Cl)c1)c1ccc(C(=O)O)cc1 [Example 10, 4-[(1S)-1-({[2,5-dichloro-4-(3-chlorobenzoyl)-3-thienyl]carbonyl}amino)ethyl]benzoic acid]
1.4 ± 0.4	Cc1sc(C)c(C(=O)N[C@@H](C)c2ccc(C(=O)O)cc2)c1Cc1ccc(C(F)(F)F)cc1 [Example 12, 4-{(1S)-1-[({2,5-dimethyl-4-[4-(trifluoromethyl)benzyl]-3-thienyl}carbonyl)amino]ethyl}benzoic acid]
0.6 ± 0.1	Cc1sc(C)c(C(=O)NC2(c3ccc(-c4nn[nH]n4)cc3)CC2)c1Cc1ccc(C(F)(F)F)cc1 [Example 14, 2,5-dimethyl-N-{1-[4-(2H-tetrazol-5-yl)phenyl]cyclopropyl}-4-[4-(trifluoromethyl)benzyl]thiophene-3-carboxamide]
0.5 ± 0.1	Cc1sc(C)c(C(=O)NC2(c3ccc(C(=O)O)cc3)CC2)c1Cc1ccc(C(F)(F)F)cc1 [Example 16, 4-{1-[({2,5-dimethyl-4-[4-(trifluoromethyl)benzyl]-3-thienyl}carbonyl)amino]cyclopropyl}benzoic acid]
308	Cc1sc(C)c(C(=O)N[C@@H](C)c2ccc(C(=O)NS(C)(=O)=O)cc2)c1Cc1ccc(C(F)(F)F)cc1 [Example 18, 2,5-dimethyl-N-[(1S)-1-(4-{[(methylsulfonyl)amino]carbonyl}phenyl)ethyl]-4-[4-(trifluoromethyl)benzyl]thiophene-3-carboxamide]
133	Cc1sc(C)c(C(=O)N[C@@H](C)c2ccc(C(=O)NS(=O)(=O)c3ccccc3)cc2)c1Cc1ccc(C(F)(F)F)cc1 [Example 19, 2,5-dimethyl-N-[(1S)-1-(4-{[(phenylsulfonyl)amino]carbonyl}phenyl)ethyl]-4-[4-(trifluoromethyl)benzyl]thiophene-3-carboxamide]
0.9 ± 0.2	C[C@@H](NC(=O)c1c(Cl)sc(Cl)c1Cc1cccc(Cl)c1)c1ccc(C(=O)O)cc1 [Example 20, 4-[(1R)-1-({[2,5-dichloro-4-(3-chlorobenzyl)-3-thienyl]carbonyl}amino)-ethyl]benzoic acid]
0.8 ± 0.2	C[C@H](NC(=O)c1c(Cl)sc(Cl)c1Cc1cccc(C(F)(F)F)c1)c1ccc(C(=O)O)cc1 [Example 21, 4-{(1S)-1-[({2,5-dichloro-4-[3-(trifluoromethyl)benzyl]-3-thienyl}carbonyl)-amino]ethyl}benzoic acid]
0.9 ± 0.1	O=C(O)c1ccc(CNC(=O)c2c(Cl)sc(Cl)c2Cc2cccc(Cl)c2)cc1 [Example 22, 4-[({[2,5-dichloro-4-(3-chlorobenzyl)-3-thienyl]carbonyl}amino)-methyl]benzoic acid]
3.1 ± 0.4	Cc1sc(C)c(C(=O)N[C@@H](C)c2ccc(C(=O)O)cc2)c1Cc1cccc(Cl)c1 [Example 23, 4-[(1S)-1-({[4-(3-chlorobenzyl)-2,5-dimethyl-3-thienyl]carbonyl}amino)-ethyl]benzoic acid]
2.4 ± 0.2	Cc1sc(C)c(C(=O)N[C@@H](C)c2ccc(C(=O)O)cc2)c1Cc1cccc(C(F)(F)F)c1 [Example 24, 4-{(1S)-1-[({2,5-dimethyl-4-[3-(trifluoromethyl)benzyl]-3-thienyl}carbonyl)-amino]ethyl}benzoic acid]
30	Cc1sc(C)c(C(=O)NCc2ccc(C(=O)O)c(Cl)c2)c1Cc1cccc(Cl)c1 [Example 25, 2-chloro-4-[({[4-(3-chlorobenzyl)-2,5-dimethyl-3-thienyl]carbonyl}amino)-methyl]benzoic acid]
0.7 ± 0.2	Cc1sc(C)c(C(=O)NC2(c3ccc(-c4nn[nH]n4)cc3)CC2)c1Cc1cccc(C(F)(F)F)c1 [Example 26, 2,5-dimethyl-N-{1-[4-(2H-tetrazol-5-yl)phenyl]cyclopropyl}-4-[3-(trifluoromethyl)benzyl]thiophene-3-carboxamide]
0.8 ± 0.2	Cc1sc(C)c(C(=O)NC2(c3ccc(C(=O)O)cc3)CC2)c1Cc1cccc(C(F)(F)F)c1 [Example 28, 4-{1-[({2,5-dimethyl-4-[3-(trifluoromethyl)benzyl]-3-thienyl}carbonyl)-amino]cyclopropyl}benzoic acid]
3.4 ± 0.2	Cc1sc(C)c(C(=O)N[C@@H](C)c2ccc(C(=O)O)cc2)c1Cc1ccc(Cl)cc1 [Example 30, 4-[(1S)-1-({[4-(4-chlorobenzyl)-2,5-dimethyl-3-thienyl]carbonyl}amino)-ethyl]benzoic acid]
